Active and inactive are the calls of the source.
Columns and labels:
[1] = biological target: Endoplasmic reticulum aminopeptidase 1 (Homo sapiens, UniProt Q9NZ08); assay: ERAP1 aminopeptidase inhibitors, dose response, biochemical, cherry-pick, set 2, plate reader (AID 743314)
fMet-Leu-Phe receptor = fMet-Leu-Phe receptor (Homo sapiens, UniProt P21462); assay: FPR ligands, dose response (AID 519); assay type: functional
Beta-galactosidase = Beta-galactosidase (Escherichia coli, UniProt Q8VNN2); assay: Dose response counterscreen for EBI2 assay utilizing the enzyme, b-galactosidase.; assay type: functional
Major prion protein = Major prion protein (Homo sapiens, UniProt P04156); assay type: functional, cell-based
cells [2] = assay: cells
[3] = biological target: Disintegrin and metalloproteinase domain-containing protein 17 (Homo sapiens, UniProt P78536); assay: exosite inhibitors of ADAM17, dose response, biochemical (AID 743260)
[4] = ADAM10 protease inhibitors, dose response, selectivity assay for ADAM17 exosite inhibitor project, biochemical, FRET peptide substrate, recombinant human ADAM10 (AID 743259);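 also: ADAM10 enzyme cleaving a FRET peptide substrate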
Cryptococcus neoformans [5] = assay: PubChem AID 686997; assay type: functional, organism-based
Cryptococcus neoformans [6] = assay: Cryptococcus growth inhibition by alamar blue – cell lysis, cherry-picks, replicate tests, mechanism study for C. neoformans antifungal project, dose response (AID 686999); assay type: functional, organism-based
[7] = NIH-3T3 fibroblast cytotoxicity, dose response, cytotoxicity control, cell-based, fluorescence, Alamar Blue, secondary assay (AID 2327); assay type: functional;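 also: NIH-3T3 mouse fibroblasts cultured with fluconazole at 8 µg/mL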
[8] = system: Streptococcus sp. 'group A'; assay: growth inhibition of control SK(-) GAS strain, dose response, counter-screen for streptokinase expression inhibitor project, luminescence, kanamycin, BacTiterGlo, confirmation (AID 1900); assay type: functional, organism-based
BJ [9] = assay: cytotoxicity toward BJ-TERT fibroblasts, dose response, cell-based, RAS-independent, luminescence (AID 1933); assay type: functional; settings: Homo sapiens
Streptokinase A = biological target: T1, Streptokinase A (Streptococcus pyogenes serotype M1, UniProt P10520); assay: S. pyogenes streptokinase expression inhibitors, potency, dose response, plasminogen activation absorbance, OD405 (AID 1914); assay type: functional, Streptococcus pyogenes M1 GAS;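 also: secreted streptokinase activity via plasminogen activation per viability signal from cell pellet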
T1 sequence (P10520 whole entry): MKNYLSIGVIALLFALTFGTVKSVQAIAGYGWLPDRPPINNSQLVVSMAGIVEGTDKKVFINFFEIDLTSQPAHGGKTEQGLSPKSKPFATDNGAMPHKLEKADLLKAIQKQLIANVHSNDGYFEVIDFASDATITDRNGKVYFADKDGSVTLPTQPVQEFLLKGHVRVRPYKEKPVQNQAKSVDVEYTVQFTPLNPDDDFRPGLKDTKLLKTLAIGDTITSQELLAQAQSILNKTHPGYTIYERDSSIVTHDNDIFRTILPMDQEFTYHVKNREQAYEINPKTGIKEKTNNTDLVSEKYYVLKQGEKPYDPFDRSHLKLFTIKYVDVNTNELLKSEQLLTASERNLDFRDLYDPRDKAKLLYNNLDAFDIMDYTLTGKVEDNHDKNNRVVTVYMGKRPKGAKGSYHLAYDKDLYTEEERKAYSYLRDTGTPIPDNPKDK

BJ [10] = assay: cells; assay type: functional, cell-based; settings: Homo sapiens
[11] = C. albicans growth with fluconazole, confirmation, fluorescence, retest (AID 2467); assay type: functional, cell-based
[12] = microbe, parasite or virus in culture; assay type: functional; settings: Mycobacterium tuberculosis
BJ [13] = assay: cytotoxicity toward BJ-TERT-LT-ST fibroblasts, dose response, cell-based, RAS-independent, luminescence (AID 1935); assay type: functional; settings: Homo sapiens;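 also: BJ fibroblasts immortalized with TERT plus LT and ST oncogenes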
[14] = cytotoxicity toward DRD oncogenic fibroblasts, dose response, cell-based, non-viral oncogenic, luminescence (AID 1934); assay type: functional; settings: Homo sapiens
[15] = biological target: Induced myeloid leukemia cell differentiation protein Mcl-1 (Homo sapiens, UniProt Q07820); assay type: functional
Streptococcus = assay: Group A Streptococcus viability loss, dose response, counter-screen for streptokinase expression inhibitor project, luminescence, BacTiterGlo (AID 1915); assay type: functional, organism-based;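 also: potency for reduction of bacterial viability or growth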
[16] = THP-1 cell cytotoxicity, dose response, cytotoxicity control for non-replicating M. tuberculosis project (AID 489025); assay type: functional
[17] = HepG2 cell cytotoxicity, dose response, cytotoxicity control for non-replicating M. tuberculosis project (AID 489018); assay type: functional; settings: Mycobacterium tuberculosis
[18] = Vero E6 cell cytotoxicity, dose response, cytotoxicity control for non-replicating M. tuberculosis project, secondary assay (AID 492998); assay type: functional, VeroE6; settings: Vero C1008
[19] = biological target: T2, Heat shock factor protein 1 (Mus musculus, UniProt P38532); assay: HSF1 potentiators in luciferase reporter cells, confirmation, cell-based, NIH3T3, luminescence, dose retest (AID 435004); assay type: functional;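 also: stress induced by proteasome inhibitor MG132 added 30 min after compound; luciferase reporter driven by HSF1 response element in NIH3T3 cells; actives raise luminescence as potentiators of the MG132 stress response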
T2 sequence (P38532 whole entry): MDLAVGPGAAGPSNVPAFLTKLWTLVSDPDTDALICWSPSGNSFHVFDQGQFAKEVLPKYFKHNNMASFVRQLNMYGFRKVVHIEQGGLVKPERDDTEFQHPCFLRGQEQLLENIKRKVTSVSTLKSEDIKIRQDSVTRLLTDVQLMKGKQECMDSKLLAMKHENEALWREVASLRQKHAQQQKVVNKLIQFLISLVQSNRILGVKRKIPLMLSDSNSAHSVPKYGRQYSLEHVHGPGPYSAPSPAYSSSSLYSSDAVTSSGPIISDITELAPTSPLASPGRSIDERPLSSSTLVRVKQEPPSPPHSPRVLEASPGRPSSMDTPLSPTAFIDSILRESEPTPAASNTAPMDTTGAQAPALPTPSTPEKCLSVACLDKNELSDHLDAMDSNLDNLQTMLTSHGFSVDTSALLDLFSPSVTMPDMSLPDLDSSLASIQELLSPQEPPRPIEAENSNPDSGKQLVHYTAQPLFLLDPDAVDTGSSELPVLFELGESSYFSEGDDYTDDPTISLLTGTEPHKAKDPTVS

cells [20] = assay type: functional
INS1 = assay: beta cell apoptosis inhibitors, cytokine rescue, dose response, luminescence, retest (AID 449756); assay type: functional, cell-based; settings: Rattus norvegicus;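 also: cell death triggered by IL-1 beta plus TNF-alpha plus IFN-gamma mixture; protective hits raise ATP signal compared with cytokine alone wells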
[21] = biological target: Dual specificity tyrosine-phosphorylation-regulated kinase 1A (Rattus norvegicus, UniProt Q63470); assay type: biochemical, Homo sapiens
P388/ADR = assay: cells; assay type: functional; settings: Mus musculus
Melanocortin receptor 4 = Melanocortin receptor 4 (Homo sapiens, UniProt P32245); assay type: functional, cell-based;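 also: Cell-based assay with luminescence read-out, confirmatory dose-response testing for agonist activity of biased ligands at MC4R; human U2OS cells with tagged receptor and beta-arrestin; potency of agonists that increase receptor coupling to beta-arrestin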
SN12K1 = assay: cells; assay type: functional; settings: Homo sapiens
P388 = assay: cells; assay type: functional; settings: Mus musculus
[22] = HeLa cell cytotoxicity, dose response, cytotoxicity control for MgcRacGAP inhibitor project (AID 624300); assay type: functional
[23] = biological target: T3, Rac GTPase-activating protein 1 (Homo sapiens, UniProt Q9H0H5); assay: MgcRacGAP GTPase-activating activity inhibitors, confirmation, biochemical, ADP Hunter fluorescence, primary and confirmatory (AID 624330); assay type: functional
T3 sequence (Q9H0H5 whole entry): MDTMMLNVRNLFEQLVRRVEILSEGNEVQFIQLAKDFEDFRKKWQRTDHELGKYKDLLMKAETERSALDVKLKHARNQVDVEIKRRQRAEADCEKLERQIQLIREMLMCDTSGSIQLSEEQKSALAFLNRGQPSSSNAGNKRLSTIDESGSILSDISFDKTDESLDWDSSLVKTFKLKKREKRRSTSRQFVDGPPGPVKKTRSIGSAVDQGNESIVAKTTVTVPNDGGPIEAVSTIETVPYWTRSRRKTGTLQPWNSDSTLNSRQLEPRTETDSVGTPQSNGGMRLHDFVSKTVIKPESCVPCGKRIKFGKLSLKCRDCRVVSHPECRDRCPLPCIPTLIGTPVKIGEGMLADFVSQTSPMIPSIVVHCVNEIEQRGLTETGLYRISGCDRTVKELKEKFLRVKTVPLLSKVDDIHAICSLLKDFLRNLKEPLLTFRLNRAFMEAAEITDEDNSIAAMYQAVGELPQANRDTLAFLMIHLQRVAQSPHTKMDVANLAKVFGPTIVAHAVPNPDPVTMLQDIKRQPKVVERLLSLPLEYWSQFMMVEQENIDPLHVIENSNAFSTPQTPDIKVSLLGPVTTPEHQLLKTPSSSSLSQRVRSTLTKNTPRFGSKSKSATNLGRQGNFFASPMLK

[24] = biological target: SWI/SNF-related matrix-associated actin-dependent regulator of chromatin subfamily A member 2 (Homo sapiens, UniProt P51531); assay: Luminescence-based cell-based high throughput dose response assay to identify activators of the function of SWI/SNF related, matrix associated, actin dependent regulator of chromatin, subfamily a, member 2 (SMARCA2, BRM).; assay type: functional
[25] = Counterscreen for activators of the function of SWI/SNF related, matrix associated, actin dependent regulator of chromatin, subfamily a, member 2 (SMARCA2, BRM): Luminescence-based cell-based high throughput dose response assay to identify non-selective compounds using the VP16 reporter assay.; assay type: functional
[26] = biological target: T4, DNA repair protein RAD52 homolog (Homo sapiens, UniProt P43351); assay type: functional, biochemical
T4 sequence (P43351 whole entry): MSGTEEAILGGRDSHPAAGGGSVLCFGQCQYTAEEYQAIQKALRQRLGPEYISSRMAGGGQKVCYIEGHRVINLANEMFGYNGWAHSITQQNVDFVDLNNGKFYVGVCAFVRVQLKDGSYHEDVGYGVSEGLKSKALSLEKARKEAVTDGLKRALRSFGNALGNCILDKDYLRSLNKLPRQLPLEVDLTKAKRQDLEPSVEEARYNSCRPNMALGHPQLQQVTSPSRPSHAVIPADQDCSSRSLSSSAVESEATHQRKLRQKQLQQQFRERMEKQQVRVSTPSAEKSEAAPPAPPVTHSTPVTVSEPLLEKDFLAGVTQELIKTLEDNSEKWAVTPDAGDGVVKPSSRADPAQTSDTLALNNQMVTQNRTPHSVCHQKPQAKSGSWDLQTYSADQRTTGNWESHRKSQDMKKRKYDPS

HEK293 [27] = assay: cells; settings: Homo sapiens
HEK293 [28] = assay: cells; settings: Homo sapiens; remark: listed apart in the source

CC1CCN(Cc2cc(=O)oc3cc(O)c(Cl)cc23)CC1
AC50 [1]: 6.33 µM (active)

COc1ccc(-c2cn3cccnc3n2)cc1NC(=O)C1CCCC1
Ki (fMet-Leu-Phe receptor): > 66.7 µM (inactive)

COc1ccccc1N1CCN(C(=O)c2cc3c(s2)-c2ccccc2OC3)CC1
IC50 (Beta-galactosidase): > 80 µM (inactive)

CCOc1ccc(-n2nc3c(S)nnc(C)c3c2C)cc1
IC50 (Major prion protein): 0.321 µM (active) | IC50 (cells [2]): > 138 µM (inactive)

CCOC(=O)CC(SP1(=S)OCC2(CCCCO2)C(C2CCCCO2)O1)C(=O)OCC (stereo not drawn)
IC50 [3]: 32.8 µM (inactive) | IC50 [4]: 56.3 µM (inactive)

COC(=O)C1=C(C)N(Cc2ccccc2)C(=S)NC1c1ccc(Br)cc1 (stereo not drawn)
AC50 (Cryptococcus neoformans [5]): 25 µM (active) | AC50 (Cryptococcus neoformans [6]): 35 µM (active)

COc1ccc2[nH]c3c(C)c4ccncc4c(C)c3c2c1
EC50 [7]: 4.36 µM (inconclusive) | EC50 [8]: 2.52 µM (active) | EC50 (BJ [9]): 3.65 µM (inconclusive) | EC50 (Streptokinase A): > 150 µM (not active) | EC50 (BJ [10]): 9.28 µM (inconclusive) | EC50 [11]: 0.698 µM (active) | CC50 [12]: 0.838 µM (active) | EC50 (BJ [13]): 4.95 µM (inconclusive) | EC50 [14]: 2.51 µM (active) | IC50 [15]: > 54 µM (active) | EC50 (Streptococcus): 8.86 µM (active) | CC50 [16]: 2.94 µM (active) | CC50 [17]: 8.79 µM (active) | CC50 [18]: 0.93 µM (active) | EC50 [19]: > 260 µM (inconclusive) | IC50 (cells [20]): 0.37 µM (active) | AC50 (INS1): 1.93 µM (active) | AC50 [21]: 2.86 µM (active) | GI50 (P388/ADR): 0.439 µM (active) | EC50 (Melanocortin receptor 4): > 89.3 µM (inactive) | GI50 (SN12K1): 0.245 µM (active) | GI50 (P388): 0.239 µM (active) | CC50 [22]: 31.2 µM (active) | IC50 [23]: 28.8 µM (active) | EC50 [24]: > 3.38 µM (active) | EC50 [25]: > 91.3 µM (inactive) | AC50 [26]: < 11.1 µM (active) | EC50 (HEK293 [27]): > 59.7 µM (inactive) | EC50 (HEK293 [28]): > 59.7 µM (inactive)
